Laboratory results as given in PubChem BioAssay (NCI).
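Test compounds were applied to cells in 96-well plates for 48 hours at 5 doses. Definition used: TGI = concentration required for complete inhibition of growth.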

What was measured:
Test in all cases: NCI anticancer screen, dose series, 48 h
SK-MEL-5 melanoma = system: SK-MEL-5 melanoma
UACC-62 melanoma = system: UACC-62 melanoma
EKVX NSCLC = system: EKVX NSCLC
CAKI-1 renal = system: CAKI-1 renal
HOP-92 NSCLC = system: HOP-92 NSCLC
SN12C renal = system: SN12C renal
M14 melanoma = system: M14 melanoma
RXF 393 renal = system: RXF 393 renal
SNB-75 CNS = system: SNB-75 CNS
ACHN renal = system: ACHN renal
SK-MEL-28 melanoma = system: SK-MEL-28 melanoma

SMILES	TGI (SK-MEL-5 melanoma) [µM]	TGI (UACC-62 melanoma) [µM]	TGI (EKVX NSCLC) [µM]	TGI (CAKI-1 renal) [µM]	TGI (HOP-92 NSCLC) [µM]	TGI (SN12C renal) [µM]	TGI (M14 melanoma) [µM]	TGI (RXF 393 renal) [µM]	TGI (SNB-75 CNS) [µM]	TGI (ACHN renal) [µM]	TGI (SK-MEL-28 melanoma) [µM]
Cc1cc2nc3ccccc3n2c2nc(N)ccc12	40.2	> 100	> 100	> 100	69	> 100	> 100	> 100	> 100	> 100	
CCc1ccc(COC(=O)C2=C(C)NC(C)=C(C(=O)OCc3ccc(CC)cn3)C2C2=COCCO2)nc1	26.1	36.7	65.1	88.5	43		31.1	37.3	39.3	89.7	35
C=C(C(=O)OC)[C@@H]1C[C@@H](OC(C)=O)C2=C[C@H](C[C@@]3(C)O[C@@H]3C3=CC(C)=C(O3)[C@H]1OC(C)=O)OC2=O	29.7	40.9	38.9	21.2		56.8	43.2	44	> 100	49.4	33.2
COc1cccc(C2SC(N)=Nc3c2c(C)nn3C(=O)Cc2ccccc2)c1 (stereo not given)	> 100	> 100	> 100	> 100		> 100	> 100		> 100	> 100	> 100
OC(CN(CCCl)CCCl)C(O)C(O)C(O)CN(CCCl)CCCl (stereo not given)	> 100	> 100	> 100	> 100	> 100	> 100	> 100	> 100		17.3	> 100
S=c1ncc2c([nH]1)C1c3ccccc3C2c2ccccc21	> 100	> 100	> 100			> 100	> 100	> 100	77.2	> 100	> 100
O=Cc1cc(C(=O)OCc2ccccc2)n(S(=O)(=O)c2ccccc2)c1	20.2	31.6	94.4	55.2		66.1	36.2	94.9	82.1	36.6	30.2
CCCCc1ccc(Nc2nc(OC)c3ncn(C4CC(O)C(CO)O4)c3n2)cc1 (stereo not given)	33.8	33.8	6.08	3.49	5.03	26.5	85.6	31.7	36.1	31.2	
CCCc1cc(COC)c(C#N)c(=O)[nH]1	> 100	> 100	> 100	> 100		> 100	> 100	> 100		> 100	> 100
Cn1c2ccccc2c(=O)c2c(O)cc3c(c21)C=CC(C)(C)O3	> 25	> 25	> 25	> 10.1	> 25	> 25		> 25	24.9		> 25
Cc1ccc2c(=O)cc(-c3ccc(C)s3)[nH]c2n1	3.41	> 78.1	> 100	> 100	> 100	> 55.9	55.9		> 100	> 69	
